Entries after “also recorded” stand apart in the source; their conditions may differ. No end group written: not given here.
Assays:
[1] = tested on: Rat phaeochromocytoma (PC12) cells; experiment: MTT assay with PC12 cells; assay type: cell-based
Method: MTT ((3-(4,5-Dimethylthiazol-2-yl)-2,5-diphenyltetrazolium bromide)) cell toxicity experiments were performed using Rat phaeochromocytoma (PC12) neuronal-like cells to assess toxicity of α-syn and the protective effects of the Pep.2 and CycPep.2 generated in this study. MTT assay (FIG. 5) was performed with PC12 cells incubated with α-syn fibrillation end products in presence and absence of peptides. […] However, with similar concentration of α-syn, the presence of Pep.2 and CycPep.2 improved cellular viability by 30% and >99% respectively.
MTT experiments were performed using Rat phaeochromocytoma (PC12) cells to assess cytotoxic effect of α-syn. Inhibition of PC12 cell redox activity is specific and early indicator of cell death. In MTT assay, water soluble MTT dye (3-(4, 5-dimethylthiazol-2-yl)-2,5-diphenyltetrazolium bromide) (#M2003 Sigma-Aldrich) is converted to formazan, and the conversion is monitored via absorbance measurement at 570 nm. The conversion of the MTT dye to formazan is dependent of redox status of the cell and thus the change in absorbance can be used as an indicator of the cellular viability in the assay.
PC12 cells were maintained in growth media RPMI 1640 supplemented with 10% horse serum, 5% fetal bovine serum, and antibiotics penicillin and streptomycin. […] The absorbance was measured at 570 nm using a multimode plate reader (TECAN infinite M200 PRO). […]

[2] = biological target: T1, α-syn (Homo sapiens, UniProt P37840); experiment: In vitro fibrillation assay (Thioflavin T fluorescence); assay type: biochemical; conditions: α-syn 400 μM, purified peptide at equimolar concentration, 37° C., 900 rpm
T1 construct: His6 (N); made in house; host or cells: E. coli Rossetta (DE3), pET29a based expression vector
Method: ThT is a fluorescent dye which is known to bind specifically to […] rich fibrils, and such binding further increases its fluorescence intensity. The fibrillation assay was carried out with α-syn in the presence and absence of above identified interacting phages.
The N-terminal His6-tagged human wild-type α-syn was expressed in E. coli Rossetta (DE3) (#70954 Novagen) using pET29a based expression vector. After IPTG induction bacterial cell pellets were harvested by centrifugation and resuspended in 10 mM Tris-HCl, pH 8.0, 1 mM EDTA, 1 mM Pierce protease inhibitor cocktail. […] Briefly, cell lysis was carried out by sonication, lysate was boiled at 95° C. for 30 minutes, followed by centrifugation at 10,000×g for 30 minutes at 4° C. […] Protein was quantitated using BCA protein estimation kit as per manufacturer's protocol (#23227 Thermo Scientific).
Thioflavin T (ThT) (4 mM) was added to 400 μM of purified α-syn with and without phages (10^11) or purified peptides at equimolar concentration in a 96 microwell plate. The plate was incubated at 37° C. with a shaking speed of 900 rpm in linear mode in a multimode plate reader (TECAN infinite M200 PRO). Fluorescence kinetics was measured after every 15 minutes with emission wavelength of 482 nm upon excitation at 442 nm. […]

| Substance | α-syn associated toxicity in PC12 cells (absorbance at 570 nm) ([1]; 10 μM α-syn with peptide in equimolar ratio, 24 hours) | improved cellular viability in presence of α-syn ([1]; PC12 cells, α-syn fibrillation end products with peptide in equimolar ratio, 24 h, α-syn alone gives loss of viability by about 50%) | inhibition of α-syn fibrillation (ThT fluorescence) [2] |
| --- | --- | --- | --- |
| Pep.2: SEQ ID NO 2; parent peptide identified from phage display against α-syn (Ac-SACNHHHHLHCGG; not fully specified; cysteine pairing not given here) | reduced α-syn associated toxicity | 30% | – |
| Pep.2d: SEQ ID NO 1; truncated derivative of Pep.2 (HHHH; Sequence retrieved through Sequence logo) | – | – | inhibits α-syn fibrillation; also recorded: able to reduce α-syn fibrillation comparable with Pep.2 |
